From article PMC6199744, “Development of Chemical Proteomics for the Folateome and Analysis of the Kinetoplastid Folateome” (ACS Infectious Diseases, 2018)
Where two headings read alike, the source gives them in different places.

Assays:
Format in all cases: binding
[1] = target: T1, HeLa cell extract proteins (Homo sapiens, UniProt Q8TEX9)
T1 construct: endogenous in cells; host or cells: HeLa cell extract
T1 sequence (Q8TEX9 1-1081): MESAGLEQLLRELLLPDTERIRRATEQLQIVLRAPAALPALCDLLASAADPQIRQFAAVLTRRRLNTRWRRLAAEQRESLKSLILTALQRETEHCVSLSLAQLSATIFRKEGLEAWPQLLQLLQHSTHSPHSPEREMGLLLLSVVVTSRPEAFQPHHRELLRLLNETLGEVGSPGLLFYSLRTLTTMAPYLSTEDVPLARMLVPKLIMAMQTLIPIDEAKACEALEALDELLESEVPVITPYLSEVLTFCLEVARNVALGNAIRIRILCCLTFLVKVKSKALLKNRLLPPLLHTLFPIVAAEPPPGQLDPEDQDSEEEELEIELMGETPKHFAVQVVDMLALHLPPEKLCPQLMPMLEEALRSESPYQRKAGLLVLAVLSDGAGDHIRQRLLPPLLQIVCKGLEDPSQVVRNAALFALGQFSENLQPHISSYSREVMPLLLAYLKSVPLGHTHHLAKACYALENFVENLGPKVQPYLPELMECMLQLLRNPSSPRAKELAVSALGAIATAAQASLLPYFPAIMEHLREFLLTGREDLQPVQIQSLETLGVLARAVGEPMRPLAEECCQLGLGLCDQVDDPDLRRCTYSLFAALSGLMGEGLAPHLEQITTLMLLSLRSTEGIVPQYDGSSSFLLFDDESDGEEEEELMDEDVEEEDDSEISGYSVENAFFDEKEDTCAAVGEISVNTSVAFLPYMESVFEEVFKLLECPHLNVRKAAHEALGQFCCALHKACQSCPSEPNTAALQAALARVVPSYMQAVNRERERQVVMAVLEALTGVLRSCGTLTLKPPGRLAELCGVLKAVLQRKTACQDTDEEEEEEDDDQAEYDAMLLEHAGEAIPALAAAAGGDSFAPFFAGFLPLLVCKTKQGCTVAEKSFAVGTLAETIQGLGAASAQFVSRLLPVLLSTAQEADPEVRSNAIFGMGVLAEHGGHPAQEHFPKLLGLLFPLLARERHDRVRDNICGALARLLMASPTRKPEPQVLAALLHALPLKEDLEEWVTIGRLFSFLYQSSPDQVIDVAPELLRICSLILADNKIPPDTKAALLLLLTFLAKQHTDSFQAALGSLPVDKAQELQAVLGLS

[2] = target: T2, HeLa cell extract proteins (Homo sapiens, UniProt Q2TB90)
T2 construct: endogenous in cells; host or cells: HeLa cell extract
T2 sequence (Q2TB90 1-917): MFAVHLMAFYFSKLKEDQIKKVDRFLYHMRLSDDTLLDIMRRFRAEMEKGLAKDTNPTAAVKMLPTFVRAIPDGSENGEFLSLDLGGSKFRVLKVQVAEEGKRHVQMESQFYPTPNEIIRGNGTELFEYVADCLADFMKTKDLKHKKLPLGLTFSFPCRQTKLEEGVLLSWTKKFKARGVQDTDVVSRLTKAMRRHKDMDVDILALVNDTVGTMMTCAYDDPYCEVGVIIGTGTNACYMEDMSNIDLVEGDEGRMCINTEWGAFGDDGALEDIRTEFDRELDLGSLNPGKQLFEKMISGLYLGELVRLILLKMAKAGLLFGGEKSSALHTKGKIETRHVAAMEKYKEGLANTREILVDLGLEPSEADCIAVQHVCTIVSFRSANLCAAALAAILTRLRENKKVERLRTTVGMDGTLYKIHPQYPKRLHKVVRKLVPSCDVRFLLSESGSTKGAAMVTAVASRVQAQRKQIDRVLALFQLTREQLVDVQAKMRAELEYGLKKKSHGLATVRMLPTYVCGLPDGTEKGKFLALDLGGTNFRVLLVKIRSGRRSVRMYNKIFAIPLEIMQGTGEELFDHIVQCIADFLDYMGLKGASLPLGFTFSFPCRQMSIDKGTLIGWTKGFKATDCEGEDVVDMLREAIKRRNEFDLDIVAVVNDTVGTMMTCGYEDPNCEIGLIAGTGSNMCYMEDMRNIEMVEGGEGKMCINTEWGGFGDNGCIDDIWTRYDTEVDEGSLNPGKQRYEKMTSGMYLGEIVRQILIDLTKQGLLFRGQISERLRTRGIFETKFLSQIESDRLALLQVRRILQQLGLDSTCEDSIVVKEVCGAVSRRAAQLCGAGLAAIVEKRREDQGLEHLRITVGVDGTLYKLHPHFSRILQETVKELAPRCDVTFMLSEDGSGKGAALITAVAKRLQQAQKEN

[3] = target: T3, HeLa cell extract proteins (Homo sapiens, UniProt Q9BQB6)
T3 construct: endogenous in cells; host or cells: HeLa cell extract
T3 sequence (Q9BQB6 whole entry): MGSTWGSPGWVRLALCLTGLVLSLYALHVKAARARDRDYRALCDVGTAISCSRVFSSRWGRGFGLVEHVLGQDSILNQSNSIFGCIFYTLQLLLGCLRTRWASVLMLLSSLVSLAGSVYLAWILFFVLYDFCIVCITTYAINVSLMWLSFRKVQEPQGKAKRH

[4] = target: T4, HeLa cell extract proteins (Homo sapiens, UniProt Q96P70)
T4 construct: endogenous in cells; host or cells: HeLa cell extract
T4 sequence (Q96P70 whole entry): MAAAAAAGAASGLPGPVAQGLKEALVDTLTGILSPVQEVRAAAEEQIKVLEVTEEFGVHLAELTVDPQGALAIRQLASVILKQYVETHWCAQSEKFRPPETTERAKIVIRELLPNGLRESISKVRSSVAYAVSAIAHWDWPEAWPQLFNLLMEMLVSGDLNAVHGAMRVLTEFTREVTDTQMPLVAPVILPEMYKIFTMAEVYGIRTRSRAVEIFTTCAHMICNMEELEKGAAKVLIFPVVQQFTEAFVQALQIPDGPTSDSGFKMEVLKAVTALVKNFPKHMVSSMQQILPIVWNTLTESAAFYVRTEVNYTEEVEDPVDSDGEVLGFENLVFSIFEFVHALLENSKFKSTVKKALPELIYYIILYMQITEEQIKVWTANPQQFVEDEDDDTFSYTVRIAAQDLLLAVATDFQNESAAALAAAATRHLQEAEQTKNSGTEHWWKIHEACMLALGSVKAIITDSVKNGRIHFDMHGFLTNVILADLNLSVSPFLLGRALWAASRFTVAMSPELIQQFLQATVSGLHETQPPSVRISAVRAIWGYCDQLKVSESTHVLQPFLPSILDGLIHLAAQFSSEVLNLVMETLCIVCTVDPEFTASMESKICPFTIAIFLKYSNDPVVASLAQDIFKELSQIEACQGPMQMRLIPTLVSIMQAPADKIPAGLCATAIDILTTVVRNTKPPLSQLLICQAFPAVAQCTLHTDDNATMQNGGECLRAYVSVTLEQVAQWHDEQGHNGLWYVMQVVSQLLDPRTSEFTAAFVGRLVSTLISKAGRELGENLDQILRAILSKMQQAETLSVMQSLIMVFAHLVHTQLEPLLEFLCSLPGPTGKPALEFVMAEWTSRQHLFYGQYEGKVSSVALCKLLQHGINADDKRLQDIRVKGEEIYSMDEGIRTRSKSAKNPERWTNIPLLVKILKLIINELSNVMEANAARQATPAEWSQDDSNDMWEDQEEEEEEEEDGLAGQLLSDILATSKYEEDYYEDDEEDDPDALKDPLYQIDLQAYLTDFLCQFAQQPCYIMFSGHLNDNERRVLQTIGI

[5] = target: T5, HeLa cell extract proteins (Homo sapiens, UniProt P56381)
T5 construct: endogenous in cells; host or cells: HeLa cell extract
T5 sequence (P56381 1-51): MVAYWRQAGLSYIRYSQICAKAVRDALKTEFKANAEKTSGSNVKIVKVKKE

[6] = target: T6, HeLa cell extract proteins (Homo sapiens, UniProt Q15392)
T6 construct: endogenous in cells; host or cells: HeLa cell extract
T6 sequence (Q15392 23-516): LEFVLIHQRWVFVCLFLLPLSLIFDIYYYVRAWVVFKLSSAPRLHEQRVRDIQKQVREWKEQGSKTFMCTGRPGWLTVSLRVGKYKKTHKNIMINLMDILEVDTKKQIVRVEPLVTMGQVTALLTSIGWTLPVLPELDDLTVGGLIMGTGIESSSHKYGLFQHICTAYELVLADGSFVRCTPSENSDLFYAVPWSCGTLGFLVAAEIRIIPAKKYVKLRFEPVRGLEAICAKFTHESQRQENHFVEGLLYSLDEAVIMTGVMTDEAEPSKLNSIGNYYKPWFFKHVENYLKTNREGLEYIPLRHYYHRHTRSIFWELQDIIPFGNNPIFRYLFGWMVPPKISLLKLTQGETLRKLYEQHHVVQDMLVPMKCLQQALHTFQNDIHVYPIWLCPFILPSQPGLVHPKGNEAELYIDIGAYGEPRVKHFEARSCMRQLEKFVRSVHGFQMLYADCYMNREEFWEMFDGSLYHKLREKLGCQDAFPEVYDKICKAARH

[7] = HeLa, protein DHCR24 (24-DEHYDROC[…] PRECURSOR)

Row | SMILES | fold changes relative to vehicle control ([1]; protein IPO4, HeLa) | fold changes relative to vehicle control ([2]; HeLa, protein HKDC1) | fold changes relative to vehicle control ([3]; HeLa, protein VKORC1) | fold changes relative to vehicle control ([4]; HeLa, protein IPO9) | fold changes relative to vehicle control ([5]; HeLa, captured protein ATP5E) | fold changes relative to vehicle control ([1]; captured protein IPO4, HeLa) | fold changes relative to vehicle control ([2]; captured protein HKDC1, HeLa) | fold changes relative to vehicle control ([4]; captured protein IPO9, HeLa) | fold changes relative to vehicle control ([5]; captured protein ATP5E, HeLa) | fold changes relative to vehicle control ([6]; protein DHCR24, HeLa) | other results
1 | Nc1nc2c(c(=O)[nH]1)N(C=O)C(CNc1ccc(C(=O)N[C@@H](CCC(=O)O)C(=O)O)cc1)CN2 (stereo partly drawn) [LEU, leucovorin] | 0.89 | 0.89 | 1.02 | 0.87 | 1.13 | – | – | – | – | – | fold changes relative to vehicle control [6, 7]: 1.13
2 | Nc1nc2[nH]cc(CCc3ccc(C(=O)N[C@@H](CCC(=O)O)C(=O)O)cc3)c2c(=O)[nH]1 [PTX, pemetrexed] | – | – | – | – | – | – | – | – | – | – | fold changes relative to vehicle control [1]: 0.88; fold changes relative to vehicle control [2]: 0.89; fold changes relative to vehicle control [3]: 1.01; fold changes relative to vehicle control [4]: 0.91; fold changes relative to vehicle control [5]: 1.34; fold changes relative to vehicle control [6]: 1.05
3 | CCCCCCOc1ccc(Cc2cnc(N)nc2N)cc1 [compound 1] | – | – | 0.98 | – | – | 0.83 | 1 | 0.89 | 0.88 | 1.03 | –
4 | CCCCCCOc1cccc(Cc2cnc(N)nc2N)c1 [compound 2] | – | – | 1.05 | – | – | 1.01 | 1.1 | 1.14 | 0.96 | 0.83 | –
5 | Nc1nc2cccc(-c3ccccc3)c2n1Cc1ccc(Cl)c(Cl)c1 [compound 3] | – | – | 1.03 | – | – | 0.97 | 1.05 | 1.07 | 0.92 | 1.02 | –
6 | NCCOCCOCC(=O)Nc1nc2ncc(CNc3ccc(C(=O)NC(CCC(=O)O)C(=O)O)cc3)nc2c(=O)[nH]1 (stereo not drawn) [compound 6] | 1.04 | 1.06 | 1.04 | 1 | 1.39 | – | – | – | – | – | fold changes relative to vehicle control ([6]; HeLa, protein DHCR24 (24-DEHYDROCHOLESTEROL REDUCTASE PRECURSOR)): 0.88
7 | NCCCNc1ccc(C(=O)NC(CCC(=O)O)C(=O)O)cc1 (stereo not drawn) [compound 7] | 0.94 | 1.09 | 1.11 | 0.94 | 1.37 | – | – | – | – | – | fold changes relative to vehicle control [6, 7]: 1.03
